Assay: Example 1: kidney biomarkers (urea nitrogen, creatinine, GFR) in short bowel syndrome patients, every four weeks for 24 weeks; also sorted by >5% change from baseline
Type: in vivo, Human
Parameters: CREATININE (RATE BLANKED) Change from Baseline Median / GFR Median / GFR Change from Baseline Median / UREA NITROGEN Median / UREA NITROGEN Change from Baseline Median: unit not given here
Details: 0.05 mg/kg/day
Method: Human patients with short bowel syndrome were divided into three groups: a control group (16 total individuals) to receive placebo, an experimental group (35 total individuals) to receive teduglutide at 0.05 mg/kg/day throughout the study, and an experimental group (32 total individuals) to receive teduglutide at 0.1 mg/kg/day throughout the study. Patients were treated by subcutaneous injection of placebo or the appropriate dose of teduglutide. As individuals with short bowel syndrome are likely to experience associated liver and kidney disease, known biomarkers of liver and kidney function were monitored every four weeks, for 24 weeks. The liver biomarkers tested included total bilirubin, ALT and AST and ALP. The kidney biomarkers tested included urea nitrogen, creatinine and GFR. Before administration of placebo or teduglutide, diagnostic biomarker levels were tested to establish a baseline for each individual.
To visualize the effect of GLP-2 on the levels of the diagnostic biomarkers, the average change from baseline was calculated for the placebo and teduglutide treated groups for each visit after a baseline was established. The average change from baseline of each group is depicted in FIGS. 1-7. The numerical figures for each diagnostic biomarker at each time point are depicted in Table 1.
The raw data for this sorting is reproduced in Table 2 below.

CC[C@H](C)[C@H](NC(=O)[C@H](Cc1ccccc1)NC(=O)[C@H](CC(=O)O)NC(=O)[C@H](CCCNC(=N)N)NC(=O)[C@H](C)NC(=O)[C@H](C)NC(=O)[C@H](CC(C)C)NC(=O)[C@H](CC(N)=O)NC(=O)[C@H](CC(=O)O)NC(=O)[C@H](CC(C)C)NC(=O)[C@@H](NC(=O)[C@@H](NC(=O)[C@H](CC(N)=O)NC(=O)[C@H](CCSC)NC(=O)[C@H](CCC(=O)O)NC(=O)[C@H](CC(=O)O)NC(=O)[C@H](CO)NC(=O)[C@H](Cc1ccccc1)NC(=O)[C@H](CO)NC(=O)CNC(=O)[C@H](CC(=O)O)NC(=O)CNC(=O)[C@@H](N)Cc1c[nH]cn1)[C@@H](C)O)[C@@H](C)CC)C(=O)N[C@@H](CC(N)=O)C(=O)N[C@@H](Cc1c[nH]c2ccccc12)C(=O)N[C@@H](CC(C)C)C(=O)N[C@H](C(=O)N[C@@H](CCC(N)=O)C(=O)N[C@H](C(=O)N[C@@H](CCCCN)C(=O)N[C@H](C(=O)N[C@H](C(=O)N[C@@H](CC(=O)O)C(=O)O)[C@@H](C)O)[C@@H](C)CC)[C@@H](C)O)[C@@H](C)CC [teduglutide]
CREATININE (RATE BLANKED) Change from Baseline Median (DW4): 1.5
CREATININE (RATE BLANKED) Median (DW4): 80 µmol/L
GFR Change from Baseline Median (DW4): −0.6
GFR Median (DW4): 77.0
UREA NITROGEN Change from Baseline Median (DW4): −0.4
UREA NITROGEN Median (DW4): 4.9
CREATININE (RATE BLANKED) Change from Baseline Median (DW8): 0.0
CREATININE (RATE BLANKED) Median (DW8): 71 µmol/L
GFR Change from Baseline Median (DW8): 1.1
UREA NITROGEN Change from Baseline Median (DW8): −0.3
UREA NITROGEN Median (DW8): 5.2
CREATININE (RATE BLANKED) Change from Baseline Median (DW12): 8.0
CREATININE (RATE BLANKED) Median (DW12): 80 µmol/L
GFR Change from Baseline Median (DW12): −5.0
UREA NITROGEN Change from Baseline Median (DW12): −0.5
UREA NITROGEN Median (DW12): 4.4
CREATININE (RATE BLANKED) Change from Baseline Median (DW16): 0.0
CREATININE (RATE BLANKED) Median (DW16): 79 µmol/L
GFR Change from Baseline Median (DW16): 0.9
UREA NITROGEN Change from Baseline Median (DW16): −0.3
UREA NITROGEN Median (DW16): 4.4
CREATININE (RATE BLANKED) Change from Baseline Median (DW20): 0.0
GFR Change from Baseline Median (DW20): 0.9
GFR Median (DW20): 74.0
UREA NITROGEN Change from Baseline Median (DW20): −0.3
UREA NITROGEN Median (DW20): 5.2
CREATININE (RATE BLANKED) Change from Baseline Median (DW 24): −0.5
CREATININE (RATE BLANKED) Median (DW 24): 80 µmol/L
GFR Change from Baseline Median (DW 24): 1.7
UREA NITROGEN Change from Baseline Median (DW 24): −0.7
UREA NITROGEN Median (DW 24): 4.9
CREATININE (RATE BLANKED) change from baseline <−5%, number of patients (week 4): 7
CREATININE (RATE BLANKED) change from baseline <−5%, percent of patients (week 4): (20.0%)
CREATININE (RATE BLANKED) change from baseline >5%, number of patients (week 4): 14
CREATININE (RATE BLANKED) change from baseline >5%, percent of patients (week 4): (40.0%)
CREATININE (RATE BLANKED) change from baseline −5% <= and <=5%, number of patients (week 4): 9
CREATININE (RATE BLANKED) change from baseline −5% <= and <=5%, percent of patients (week 4): (25.7%)
GFR change from baseline <−5%, number of patients (week 4): 13
GFR change from baseline <−5%, percent of patients (week 4): (37.1%)
GFR change from baseline >5%, number of patients (week 4): 8
GFR change from baseline >5%, percent of patients (week 4): (22.9%)
GFR change from baseline −5% <= and <=5%, number of patients (week 4): 9
GFR change from baseline −5% <= and <=5%, percent of patients (week 4): (25.7%)
UREA NITROGEN change from baseline <−5%, number of patients (week 4): 16
UREA NITROGEN change from baseline <−5%, percent of patients (week 4): (45.7%)
UREA NITROGEN change from baseline >5%, number of patients (week 4): 7
UREA NITROGEN change from baseline >5%, percent of patients (week 4): (20.0%)
UREA NITROGEN change from baseline −5% <= and <=5%, number of patients (week 4): 7
UREA NITROGEN change from baseline −5% <= and <=5%, percent of patients (week 4): (20.0%)
CREATININE (RATE BLANKED) change from baseline <−5%, number of patients (week 8): 11
CREATININE (RATE BLANKED) change from baseline <−5%, percent of patients (week 8): (31.4%)
CREATININE (RATE BLANKED) change from baseline >5%, number of patients (week 8): 10
CREATININE (RATE BLANKED) change from baseline >5%, percent of patients (week 8): (28.6%)
CREATININE (RATE BLANKED) change from baseline −5% <= and <=5%, number of patients (week 8): 8
CREATININE (RATE BLANKED) change from baseline −5% <= and <=5%, percent of patients (week 8): (22.9%)
GFR change from baseline <−5%, number of patients (week 8): 9
GFR change from baseline <−5%, percent of patients (week 8): (25.7%)
GFR change from baseline >5%, number of patients (week 8): 12
GFR change from baseline >5%, percent of patients (week 8): (34.3%)
GFR change from baseline −5% <= and <=5%, number of patients (week 8): 7
GFR change from baseline −5% <= and <=5%, percent of patients (week 8): (20.0%)
UREA NITROGEN change from baseline <−5%, number of patients (week 8): 14
UREA NITROGEN change from baseline <−5%, percent of patients (week 8): (40.0%)
UREA NITROGEN change from baseline >5%, number of patients (week 8): 10
UREA NITROGEN change from baseline >5%, percent of patients (week 8): (28.6%)
UREA NITROGEN change from baseline −5% <= and <=5%, number of patients (week 8): 5
UREA NITROGEN change from baseline −5% <= and <=5%, percent of patients (week 8): (14.3%)
CREATININE (RATE BLANKED) change from baseline <−5%, number of patients (week 12): 7
CREATININE (RATE BLANKED) change from baseline <−5%, percent of patients (week 12): (20.0%)

From patent US20130157954A1, “METHODS FOR TREATMENT OR PROPHYLAXIS OF KIDNEY OR LIVER DYSFUNCTION” (NPS PHARMACEUTICALS, INC., priority 2010, published 2013)
